Results as given in the supplement of paper PMC11208160.

assay: recombinant UMI read abundance after kanamycin selection (control-corrected) (log10(CPM+1)); higher = more efficient recombination; extreme values may be limits of the assay; sequences stand for … in AGTGCAGAGAAAATCGGCCAGTTTTCTCTGCCTGCAGTCCGCATGCCGTGGGACCCCTTGGGTTCTAACCTGTTGCCTAGATTTATGCAGCGGACTGCCTTTCTCCCAAAGTGATAAACCGG…AGGTTGGTTTCACT; site = the 11-nt donor
Method in brief: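 Counts of recombinant UMIs were reported as log10(CPM+1). Before that, they were converted to CPM, averaged over replicates and scaled using control-derived factors. They came from PCR across the donor–target junction after Escherichia coli carrying the pair library and target plasmid was plated on IPTG (0.07 mM) plus kanamycin, or unselected, in two replicates each.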
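Note: IS621 bridge recombinase in Escherichia coli cells against a fixed T5 target plasmid.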

Sequence | recombinant UMI read abundance (log10)
TCTTCCCCATGGACCGGTTTTCCCGGTAATCCGTATTTGTA (site TCTTCCCCTTA) | 0
TCTTCCCCATGGACCGGTTTTCCCGGTAATCCGTATTTGTA (site TGTTCCCCTTA) | 0.00596
TCTTCCCCATGGACCGGTTTTCCCGGTAATCCGTATTTGTA (site TTTTCCCCTTA) | 0.00951
TCTTGCCCATGGACCGGTTTTCCCGGTAATCCGTATTTGAT (site ACTTGCCCTAT) | 0.00765
TCTTGCCCATGGACCGGTTTTCCCGGTAATCCGTATTTGAT (site CCTTGCCCTAT) | 0.0026
TCTTGCCCATGGACCGGTTTTCCCGGTAATCCGTATTTGAT (site GCTTGCCCTAT) | 0.00287
TCTTGCCCATGGACCGGTTTTCCCGGTAATCCGTATTTGAT (site TCTTGCCCTAT) | 0.0104
TCTTTAGCATGGACCGGTTTTCCCGGTAATCCGTATTTGCA (site TCTTTAGCTTG) | 0
TGAAAGACATGGACCGGTTTTCCCGGTAATCCGTATTTGTA (site TGAAAGACTTA) | 2.37
TGAACACCATGGACCGGTTTTCCCGGTAATCCGTATTTGCA (site TGAACACCTTG) | 0.302
TGAACATCATGGACCGGTTTTCCCGGTAATCCGTATTTGGC (site TGAACATCTGC) | 1.37
TGAACGACATGGACCGGTTTTCCCGGTAATCCGTATTTGGA (site TGAACGACTTC) | 0.221
TGAAGAGCATGGACCGGTTTTCCCGGTAATCCGTATTTGCC (site TGAAGAGCTGG) | 1.62
TGAAGCACATGGACCGGTTTTCCCGGTAATCCGTATTTGCG (site TGAAGCACTCG) | 1.18
TGAATCACATGGACCGGTTTTCCCGGTAATCCGTATTTGAA (site CACGCGCCTGA) | 0.00781
TGACATTCATGGACCGGTTTTCCCGGTAATCCGTATTTGCC (site TGACATTCTGG) | 2.22
TGACCCGCATGGACCGGTTTTCCCGGTAATCCGTATTTGAC (site CAGATACCTCC) | 0.00655
TGACGAACATGGACCGGTTTTCCCGGTAATCCGTATTTGGT (site TGACGAACTAC) | 1.16
TGACGCTCATGGACCGGTTTTCCCGGTAATCCGTATTTGCG (site TGACGCTCTCG) | 1.33
TGACTGCCATGGACCGGTTTTCCCGGTAATCCGTATTTGAA (site TGACTGCCTTT) | 0.0135
TGACTGGCATGGACCGGTTTTCCCGGTAATCCGTATTTGTA (site TGACTGGCTTA) | 1.34
TGACTGTCATGGACCGGTTTTCCCGGTAATCCGTATTTGAT (site TGACTGTCTAT) | 0.245
TGACTTTCATGGACCGGTTTTCCCGGTAATCCGTATTTGAG (site TGACTTTCTCT) | 0
TGAGCGTCATGGACCGGTTTTCCCGGTAATCCGTATTTGAC (site TGAGCGTCTGT) | 1.7
TGAGCTACATGGACCGGTTTTCCCGGTAATCCGTATTTGTC (site GCGAACTCTCC) | 0
TGAGGACCATGGACCGGTTTTCCCGGTAATCCGTATTTGGG (site AGAGGACCTCC) | 0.0068

Sequence | recombinant UMI read abundance (log10)
TGAGGACCATGGACCGGTTTTCCCGGTAATCCGTATTTGGG (site CGAGGACCTCC) | 0.00688
TGAGGACCATGGACCGGTTTTCCCGGTAATCCGTATTTGGG (site GGAGGACCTCC) | 0.0165
TGAGGACCATGGACCGGTTTTCCCGGTAATCCGTATTTGGG (site TGAGGACCTCC) | 0.0291
TGAGGACCATGGACCGGTTTTCCCGGTAATCCGTATTTGGT (site TGAGGACCTAC) | 0.00901
TGAGGAGCATGGACCGGTTTTCCCGGTAATCCGTATTTGGT (site TGAGGAGCTAC) | 1.12
TGAGGCTCATGGACCGGTTTTCCCGGTAATCCGTATTTGGT (site TGAGGCTCTAC) | 1.76
TGAGTTTCATGGACCGGTTTTCCCGGTAATCCGTATTTGCT (site TGAGTTTCTAG) | 1.54
TGATACTCATGGACCGGTTTTCCCGGTAATCCGTATTTGCA (site TAATACTCTTG) | 2.38
TGATACTCATGGACCGGTTTTCCCGGTAATCCGTATTTGCA (site TCATACTCTTG) | 1.29
TGATACTCATGGACCGGTTTTCCCGGTAATCCGTATTTGCA (site TGATACTCTTG) | 2.51
TGATACTCATGGACCGGTTTTCCCGGTAATCCGTATTTGCA (site TTATACTCTTG) | 1.96
TGATCATCATGGACCGGTTTTCCCGGTAATCCGTATTTGCG (site CGATCATCTAG) | 0
TGATCATCATGGACCGGTTTTCCCGGTAATCCGTATTTGCG (site TGATCATCTCG) | 1.27
TGATCGACATGGACCGGTTTTCCCGGTAATCCGTATTTGTT (site AGATCGACTAA) | 0.0146
TGATCGACATGGACCGGTTTTCCCGGTAATCCGTATTTGTT (site CGATCGACTAA) | 0.0214
TGATCGACATGGACCGGTTTTCCCGGTAATCCGTATTTGTT (site GGATCGACTAA) | 0.0286
TGATCGACATGGACCGGTTTTCCCGGTAATCCGTATTTGTT (site TGATCGACTAA) | 0.0254
TGATTATCATGGACCGGTTTTCCCGGTAATCCGTATTTGAA (site TGATTATCTTT) | 1.32
TGCACAGCATGGACCGGTTTTCCCGGTAATCCGTATTTGGC (site TGCACAGCTGC) | 1.05
TGCATATCATGGACCGGTTTTCCCGGTAATCCGTATTTGAC (site TGCATATCTGT) | 1.25
TGCATCCCATGGACCGGTTTTCCCGGTAATCCGTATTTGAC (site TGCATCCCTGT) | 0.448
TGCATGCCATGGACCGGTTTTCCCGGTAATCCGTATTTGGT (site TGCATGCCTAC) | 0.0134
TGCCAATCATGGACCGGTTTTCCCGGTAATCCGTATTTGTG (site TGCCAATCTCA) | 0.0694
TGCCACACATGGACCGGTTTTCCCGGTAATCCGTATTTGAG (site TGCCACACTCT) | 0.305
TGCCCCGCATGGACCGGTTTTCCCGGTAATCCGTATTTGTT (site TGCCCCGCTAA) | 0.0107
TGCCGATCATGGACCGGTTTTCCCGGTAATCCGTATTTGGT (site TGCCGATCTAC) | 0
